Read-outs that look alike come from different tables or passages of the source.
Target: G9a (Homo sapiens (Human), UniProt Q96KQ7)
Experiment: G9a AlphaLISA enzymatic activity assay
Format: biochemical
[1] = G9a AlphaLISA, negative log of the IC50 value in molar

Chain of G9a (Q96KQ7 whole entry): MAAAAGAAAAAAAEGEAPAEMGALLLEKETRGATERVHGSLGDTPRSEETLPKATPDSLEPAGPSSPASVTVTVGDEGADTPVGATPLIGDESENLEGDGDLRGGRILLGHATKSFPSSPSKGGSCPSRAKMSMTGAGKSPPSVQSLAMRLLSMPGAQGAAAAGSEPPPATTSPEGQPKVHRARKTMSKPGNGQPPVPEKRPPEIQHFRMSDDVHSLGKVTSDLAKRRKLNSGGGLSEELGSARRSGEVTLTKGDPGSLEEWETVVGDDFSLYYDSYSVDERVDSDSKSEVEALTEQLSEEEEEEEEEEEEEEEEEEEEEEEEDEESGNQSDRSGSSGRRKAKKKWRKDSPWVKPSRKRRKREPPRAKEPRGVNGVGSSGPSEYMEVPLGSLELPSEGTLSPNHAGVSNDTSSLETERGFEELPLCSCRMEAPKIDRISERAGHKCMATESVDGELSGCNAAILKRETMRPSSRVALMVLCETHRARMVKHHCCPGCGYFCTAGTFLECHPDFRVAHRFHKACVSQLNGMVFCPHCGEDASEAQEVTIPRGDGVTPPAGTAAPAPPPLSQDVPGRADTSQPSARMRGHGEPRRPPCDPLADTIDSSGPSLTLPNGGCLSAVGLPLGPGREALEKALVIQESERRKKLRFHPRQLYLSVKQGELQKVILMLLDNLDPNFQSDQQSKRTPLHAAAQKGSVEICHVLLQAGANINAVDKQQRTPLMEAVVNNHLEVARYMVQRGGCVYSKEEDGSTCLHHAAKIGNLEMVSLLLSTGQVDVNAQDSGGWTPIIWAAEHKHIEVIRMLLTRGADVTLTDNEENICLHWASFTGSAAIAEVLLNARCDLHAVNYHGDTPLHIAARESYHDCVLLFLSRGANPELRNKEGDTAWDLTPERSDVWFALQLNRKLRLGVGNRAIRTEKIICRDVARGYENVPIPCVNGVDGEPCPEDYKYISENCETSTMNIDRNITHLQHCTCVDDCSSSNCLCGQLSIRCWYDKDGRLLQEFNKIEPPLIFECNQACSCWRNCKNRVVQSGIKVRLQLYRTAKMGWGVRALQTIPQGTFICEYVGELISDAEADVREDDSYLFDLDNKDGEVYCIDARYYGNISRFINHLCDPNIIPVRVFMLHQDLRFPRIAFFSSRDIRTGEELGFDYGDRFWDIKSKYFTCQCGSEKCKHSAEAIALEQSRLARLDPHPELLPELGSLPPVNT

Row | Compound | pIC50 [1] | further results
1 | CCN1CCC(Nc2c3c(nc4cc(OC)c(OC)cc24)CCC3)CC1 [Example 15] | 7.67 | –
2 | COc1cc2nc3c(c(NC4CNC4)c2cc1OC)CCC3 [Example 13] | 7.22 | –
3 | COc1cc2nc3c(c(NC4CCN(C5CCCC5)CC4)c2cc1OC)CCC3 [Example 60, 1-cyclopentyl-N-{6,7-dimethoxy-1H,2H,3H-cyclopenta[b]quinolin-9-yl}piperidin-4-amine] | 7.4 | –
4 | COc1cc2nc3c(c(N[C@@H]4CNC[C@H](C)C4)c2cc1OC)CCC3 [Example 408, (3S,5R)-N-{6,7-dimethoxy-1H,2H,3H-cyclopenta[b]quinolin-9-yl}-5-methylpiperidin-3-amine] | 6.9 | –
5 | COc1cc2nc3c(c(N[C@H]4CNCC(F)(F)C4)c2cc1OC)CCC3 [Example 410, (3R)-N-{6,7-dimethoxy-1H,2H,3H-cyclopenta[b]quinolin-9-yl}-5,5-difluoropiperidin-3-amine] | – | IC50 [1]: > 10 µM
6 | COc1cc2nc3c(c(NCC4CCNC4)c2cc1OC)CCC3 (centres unmarked) [Example 65, 6,7-dimethoxy-N-[(pyrrolidin-3-yl)methyl]-1H,2H,3H-cyclopenta[b]quinolin-9-amine] | 7.4 | –
7 | COc1cc2nc3c(c(N[C@@H]4CCCNCC4)c2nc1OC)CCC3 [Example 163, (4R)-N-[2,3-dimethoxy-6H,7H,8H-cyclopenta[b]1,5-naphthyridin-9-yl] azepan-4-amine] | – | pIC50: 6.8
8 | COc1cc2nc3c(c(NC4CCN(c5ccccc5F)CC4)c2cc1OC)CCC3 [Example 26] | 7.53 | –
9 | COc1cc2nc3c(c(NC4CCN(c5ccncc5)CC4)c2cc1OC)CCC3 [Example 22] | 6.21 | –
10 | COCCN1CCC(Nc2c3c(nc4cc(OC)c(OC)cc24)CCC3)CC1 [Example 61, N-{6,7-dimethoxy-1H,2H,3H-cyclopenta[b]quinolin-9-yl}-1-(2-methoxyethyl)piperidin-4-amine] | 6.7 | –
11 | COc1cc2nc3c(c(NC4CCN(C(C)C)CC4)c2cc1OC)CCCCC3 [Example 33] | 5.78 | –
12 | COc1cc2nc3c(c(N[C@H]4CNC[C@H](F)C4)c2cc1OC)CCC3 [Example 416, (3R,5R)-N-{6,7-dimethoxy-1H,2H,3H-cyclopenta[b]quinolin-9-yl}-5-fluoropiperidin-3-amine] | 6.9 | –
13 | COc1cc2nc3c(c(NC[C@H]4CCCNC4)c2cc1OC)CCC3 [Example 69] | 7.1 | –
14 | COc1cc2nc3c(c(NC4CCN(C(=O)CO)CC4)c2cc1OC)CCC3 [Example 54, 1-[4-({6,7-dimethoxy-1H,2H,3H-cyclopenta[b]quinolin-9-yl}amino)piperidin-1-yl]-2-hydroxyethan-1-one] | 6.24 | –
15 | CCCOc1cc2nc3c(c(NC)c2cc1OC)CCC3 [Example 2, bis(formic acid)] | 5 | –
16 | [2H]C([2H])([2H])Oc1cc2nc3c(c(N[C@@H]4CCCNC4)c2cc1OC([2H])([2H])[2H])CCC3 [Example 405, (3R)-N-[6,7-di(2H3)methoxy-1H,2H,3H-cyclopenta[b]quinolin-9-yl]piperidin-3-amine] | – | IC50 [1]: 0.0126 µM
17 | CCOCCOc1cc2nc3c(c(NC)c2cc1OC)CCC3 [Example 4, bis(formic acid)] | 5.57 | –
18 | COc1cc2nc3c(c(NC4CCN(c5cccnc5)CC4)c2cc1OC)CCC3 [Example 23] | 7.05 | –
19 | COc1cc2nc3c(c(NC4CC5(CNC5)C4)c2cc1OC)CCC3 [Example 19, bis(formic acid)] | 5 | –
20 | COc1cc2nc3c(c(NC4CCN(c5ccccn5)CC4)c2cc1OC)CCC3 [Example 24] | 6.11 | –
21 | COc1cc2nc3c(c(NC4CCN(c5ccccc5OC)CC4)c2cc1OC)CCC3 [Example 49] | 5.63 | –
22 | CCOc1cc2nc3c(c(N[C@@H]4CCCNC4)c2cc1OCC)CCC3 [Example 406, (3R)-N-[6,7-di(2H3)ethoxy-1H,2H,3H-cyclopenta[b]quinolin-9-yl]piperidin-3-amine] | – | IC50 [1]: > 10 µM
23 | COc1cc2nc3c(c(N[C@@H]4CCCNCC4)c2cc1OC)CCC3 [Example 62, (4R)-N-{6,7-dimethoxy-1H,2H,3H-cyclopenta[b]quinolin-9-yl}azepan-4-amine] | 7.5 | –
